In assay [1] the target is T1, PtdIns 4-kinase (Bos taurus, UniProt A6QLN5).
T1 construct: It constitutes the major PtdIns 4-kinase activity of bovine uteri; from tissue; host or cells: bovine uterus (acetone powder, purified over ammonium sulfate, Mono Q, S-Sepharose, Mono Q, Mono P and hydroxylapatite)
Put plainly: Influence of divalent cations (Mg2+, Ca2+) on PtdIns 4-kinase activity. In kind it is biochemical, bovine. As to the method: The reaction was terminated by the addition of 12 μl of cold HCl, 120 μl of cold methanol, 150 μl of chloroform, and 40 μl of H2 O. The extracted samples were centrifuged at 12,000 × g for 1 min. and the aqueous layer removed and discarded. When needed, the organic phase was washed with 40 μl of cold methanol and 40 μl of cold 1.0 N HCl, centrifuged at 12,000 × g, and the aqueous layer was removed. The organic phase was then dried under vacuum in a Savant speed-vac, resuspended in 40 μl of chloroform/methanol (2:1), and chromatographed on potassium oxalate-impregnated Silica Gel 60 thin layer chromatography plates (TLC). […] For two-dimensional thin layer chromatography, the preceding solvent system was used for the first dimension, and chloroform/methanol/acetic acid/water (50:39:1:10) was used for the second dimension. Standards were visualized by exposing the TLC plate to iodine vapor. The reaction product, phosphatidylinositol 4-phosphate, was visualized by autoradiography, and the corresponding area of the TLC plate was scraped and quantitated by Cherenkov counting. […] For tests utilizing [^3 H]PtdIns, the corresponding areas of the TLC plates were scraped and the silica powder was suspended in a gel of Aquasol/H2 O (4:1) before counting. All assays (except column fractions) were done in duplicate or triplicate.

Assay [2] addresses T1, PtdIns 4-kinase. Put plainly: PtdIns 4-kinase activity assay: kinetic parameters, specific activity, pH optimum. It counts as biochemical, bovine. The settings on record: for Km: assuming a molecular weight of 835.2 for PtdIns, read-out: apparent Km for PtdIns. As to the method: (§1) PtdIns 4-kinase activity was assayed in 60 μl at 30° C. in 20 mM BisTris-HCl (pH 7.0), 10 mM MgCl2, 1.0% Triton X-100, 0.25 mg/ml phosphatidylinositol, and 150 μM ATP (1.25 μCi[-^32 P]ATP), unless otherwise noted. The reaction was terminated by the addition of 12 μl of cold HCl, 120 μl of cold methanol, 150 μl of chloroform, and 40 μl of H2 O. The extracted samples were centrifuged at 12,000 × g for 1 min. and the aqueous layer removed and discarded. When needed, the organic phase was washed with 40 μl of cold methanol and 40 μl of cold 1.0 N HCl, centrifuged at 12,000 × g, and the aqueous layer was removed. The organic phase was then dried under vacuum in a Savant speed-vac, resuspended in 40 μl of chloroform/methanol (2:1), and chromatographed on potassium oxalate-impregnated Silica Gel 60 thin layer chromatography plates (TLC). The solvent system used consisted of chloroform/methanol/ammonium hydroxide/water (51:39.6:3:8.4). For two-dimensional thin layer chromatography, the preceding solvent system was used for the first dimension, and chloroform/methanol/acetic acid/water (50:39:1:10) was used for the second dimension. Standards were visualized by exposing the TLC plate to iodine vapor. The reaction product, phosphatidylinositol 4-phosphate, was visualized by autoradiography, and the corresponding area of the TLC plate was scraped and quantitated by Cherenkov counting. This assay was linear with respect to both protein concentration and time. For tests utilizing [^3 H]PtdIns, the corresponding areas of the TLC plates were scraped and the silica powder was suspended in a gel of Aquasol/H2 O (4:1) before counting. All assays (except column fractions) were done in duplicate or triplicate.
The purified PtdIns 4-kinase was used to determine the kinetic parameters of this enzyme for ATP and PtdIns. Optimal enzymatic activity was found at concentrations of ATP above 100 μM. […] In order to avoid potential effects on enzymatic activity due to changes in the Triton X-100/PtdIns micelles used as substrate, a constant molar ratio of Triton X-100 to PtdIns was used, and the concentration of Triton X-100 was maintained above its critical micellar concentration. […] The different Vmax values may be explained by the fact that the ATP substrate saturation curve was performed at a pH of 7.4 rather than 7.0.
In order to optimize the assay of this enzyme, the pH optimum for Ptdlns 4-kinase was determined. This enzyme was optimally active in the pH range of 6.0-7.0 (FIG. 4). Above a pH of 7.0 and below a pH of 6.0 the activity of this enzyme decreased sharply.

In assay [3] the test system is PtdIns 4-kinase/PtdIns-4-P 5-kinase purified from bovine brain myelin. As to conditions: Saltiel et al., Biochem. J. 241, 759-763 (1987); cited from earlier work.
Assay [4] addresses T1, PtdIns 4-kinase. Put plainly: Specificity of PtdIns 4-kinase for a nucleotide phosphoryl donor ([3H]PtdIns as substrate). It counts as biochemical, bovine. As to the method:
as §1, with “This assay was linear with respect to both protein concentration and time.” left out

The mark [5] stands for this setting: nonlinear regression, Hill equation.

Several values for one entry are separate records, joined by “and”; a condition that tells them apart may be missing. Identical values can stand only once. Entries after “also recorded” stand apart in the source; their conditions may differ. Like-named read-outs stand apart in the source and are kept apart here.

One may read the Km as the concentration of substrate that gives half-maximal velocity.

T1 sequence (A6QLN5 1-479): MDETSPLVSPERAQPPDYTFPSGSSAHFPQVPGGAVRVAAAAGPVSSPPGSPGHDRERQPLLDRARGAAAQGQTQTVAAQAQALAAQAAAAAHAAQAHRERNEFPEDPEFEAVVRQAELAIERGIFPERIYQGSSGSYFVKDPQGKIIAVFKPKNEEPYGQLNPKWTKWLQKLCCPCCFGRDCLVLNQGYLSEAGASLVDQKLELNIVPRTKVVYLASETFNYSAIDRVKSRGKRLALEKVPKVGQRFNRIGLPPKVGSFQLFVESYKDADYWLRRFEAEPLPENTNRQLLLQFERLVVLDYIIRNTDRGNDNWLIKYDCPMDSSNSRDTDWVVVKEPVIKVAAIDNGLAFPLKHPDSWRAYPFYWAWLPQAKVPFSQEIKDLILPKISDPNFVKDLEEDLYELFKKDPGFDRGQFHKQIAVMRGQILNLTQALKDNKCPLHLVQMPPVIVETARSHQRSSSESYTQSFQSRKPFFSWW

With `[Mg+2]` [Mg^2+], at PtdIns 4-kinase [1] (setting [5]), the “Hill coefficient of Mg2+ dependence” value amounted to 1.9 and the “Ks of Mg2+ dependence” value is given as 0.36.

phosphatidylinositol [PtdIns]: the “PtdIns concentration for saturation of enzyme activity” value on PtdIns 4-kinase [2] (FIG. 3B) is “above 0.2 mg/ml”. The Michaelis-Menten constant (Km) at PtdIns 4-kinase [2] (listed as phosphatidylinositol (PtdIns)) is approximately 26 µM; on PtdIns 4-kinase [2], 26 µM and ~26 µM; in assay [3], 400 µM. Further, the “Vmax, PtdIns concentration varied” value on PtdIns 4-kinase [2] (pH 7.0) is 3.3 µmol/mg/min. Also, the “apparent Km for PtdIns” value at PtdIns 4-kinase [2] (purified enzyme, pH 7.0 (Tris-HCl), constant Triton X-100/PtdIns ratio) was 22 µg/mL.

Consider `[Ca+2]` [Ca^2+], for which the IC50 at PtdIns 4-kinase [1] (100 μM ATP, 100 μM EGTA, FIG. 6, read-out: free Ca2+ concentration giving 50% inhibition) is approximately 300 µM.

Take `Nc1ncnc2c1ncn2[C@@H]1O[C@H](COP(=O)(O)OP(=O)(O)OP(=O)(O)O)[C@@H](O)[C@H]1O` [ATP]: the “ATP concentration for optimal enzymatic activity” value at PtdIns 4-kinase [2] (FIG. 3A) is “above 100 μM”. For the same molecule, the “Vmax, ATP concentration varied” value on PtdIns 4-kinase [2] (pH 7.4) amounted to 2.2 µmol/mg/min. Also, at PtdIns 4-kinase [4] ([3H]PtdIns as substrate), the “utilization as phosphoryl donor (words)” value is recorded as “utilized; also recorded: will utilize”. Further, the activity at 150 µM on PtdIns 4-kinase [4] (read-out: Relative activity with nucleotide donor) was 100%.
